Laboratory results as given in US20200224168A1, “COMPOSITIONS AND METHODS FOR ENHANCING MATURATION STATES OF HEALTHY AND DISEASED CARDIOMYOCYTES” (University of Washington, priority 2017, published 2020).

Assays:
[1] = tested on: mature DMD mutant hPSC-CMs; assay: nanoMEA beat rate variability (Mean ΔBI), mature diseased cells; format: cell-based, human
Description: Cells were exposed to various concentrations of nitrendipine or sildenafil citrate for seven days and measured their beat rate variability. […] Briefly, the ion permeable polymer Nafion (Sigma-Aldrich) was patterned onto commercial multi-well MEA plates (Axion Biosystems) via solvent-mediated capillary force lithography. Prior to cell seeding, control flat or nanoMEA Nafion surfaces were sterilized with UV-C light and then incubated for 6 hours at 37° C. with 5 μg/cm^2 human fibronectin (Life Technologies). hPSC-CMs were plated in droplet fashion at 25,000 cells per well of the MEA plate. Electrophysiological analysis of spontaneously beating cardiomyocytes was collected for 2 minutes using the AxIS software (Axion Biosystems). After raw data collection, the signal was filtered using a Butterworth band-pass filter and a 90 μV spike detection threshold. Field potential duration was automatically determined using a polynomial fit T-wave detected algorithm.

[2] = tested on: cells exposed to Control conditions or Normal hPSC-CMs exposed to the ComboMat platform; assay: nanoMEA beat rate variability, immature or healthy cells; format: cell-based, human; settings: seven days
Description: Cells were exposed to various concentrations of nitrendipine or sildenafil citrate for seven days and measured their beat rate variability. […] Briefly, the ion permeable polymer Nafion (Sigma-Aldrich) was patterned onto commercial multi-well MEA plates (Axion Biosystems) via solvent-mediated capillary force lithography. Prior to cell seeding, control flat or nanoMEA Nafion surfaces were sterilized with UV-C light and then incubated for 6 hours at 37° C. with 5 μg/cm^2 human fibronectin (Life Technologies). hPSC-CMs were plated in droplet fashion at 25,000 cells per well of the MEA plate. Electrophysiological analysis of spontaneously beating cardiomyocytes was collected for 2 minutes using the AxIS software (Axion Biosystems). After raw data collection, the signal was filtered using a Butterworth band-pass filter and a 90 μV spike detection threshold. Field potential duration was automatically determined using a polynomial fit T-wave detected algorithm. Beat interval analysis on 30 consecutive beats was performed as previously published^26 (see Table 3).

DMD patients = settings: cited from earlier work
mdx mouse = settings: cited from earlier work
hPSC-CMs = assay: Immunofluorescent imaging, morphological and sarcomere analysis; format: cell-based, human; settings: for cell area compared to Control: single maturation cue on flat surface, 3 weeks
Description: For these studies, and all subsequent functional assays, the full ComboMat platform (Let7i+NP+T3) was compared to a viral vector Control (EV+Flat+No T3) and each maturation cue in isolation: NP (EV+NP+No T3), T3 (EV+Flat+T3), and Let7i (Let7i+Flat+No T3). […] Sarcomeres developed with a higher degree of directionality and order on NPs, resulting in more sarcomeres in register with one another (FIG. 2B).
[…] Samples were then permeabilized with 0.1% Triton X-100 (Sigma-Aldrich) in PBS and blocked with 5% goat serum. Cells were then incubated with mouse anti-α-actinin monoclonal antibody (1:1000, Sigma-Aldrich) in 1% goat serum overnight at 4° C. After washing with PBS, the samples were stained with Alexa-594 conjugated goat-anti-mouse secondary antibody (1:200, Invitrogen) as well as Alexafluo 488 labeled Phalloidin (1:200, Invitrogen). Nuclei counterstaining was performed with Vectashield containing DAPI (Vector Labs). A Nikon AIR confocal microscope with a Nikon CFI Plan Apo VC 60× water immersion objective was used to capture detailed immunofluorescent images for sarcomere analysis while a 20× air objective was used to obtain low-powered images of cells for measuring cell binucleation percentage. Cells from both objective powers were used to measure cell size. For morphological and sarcomere analysis, hPSC-CMs were plated at 10,000 cells/cm^2. […]
Immunofluorescent images were quantified for sarcomere alignment, pattern strength, and sarcomere length using a scanning gradient/Fourier transform script in MATLAB (Mathworks). Each image was broken into several small segments which were individually analyzed. Using a directional derivative, the image gradient for each segment was calculated to determine the local alignment of sarcomeres. The pattern strength was then determined by calculating the maximum peaks of one-dimensional Fourier transforms in the direction of the gradient. The lengths of sarcomeres were calculated by measuring the intensity profiles of the sarcomeres along this same gradient direction. […]

DMD mutant hPSC-CMs = assay: Primary drug screen: intracellular ATP (CellTiter Glo) viability after hypotonic stress; settings: 18 hours compound incubation, then 12.5% normal osmolarity for 30 minutes, relative to DMSO control wells, concentration not stated (10^-8 to 10^-5 M tested)

CCCc1nn(C)c2c(=O)[nH]c(-c3cc(S(=O)(=O)N4CCN(C)CC4)ccc3OCC)nc12 [sildenafil]
Mean ΔBI (beat rate variability) compared to DMSO carrier control ([1]; mature (ComboMat) DMD mutant hPSC-CMs, seven days exposure, various concentrations): no effect | impact on beat rate variability [2]: Neither nitrendipine nor sildenafil had a significant impact | cardiac symptoms in DMD patients (clinical trial, terminated early) (DMD patients): exacerbated cardiac symptoms | cardiac dysfunction in the mdx mouse (mdx mouse): showed promise in alleviating cardiac dysfunction

CCOC(=O)C1=C(C)NC(C)=C(C(=O)OC)C1c1cccc([N+](=O)[O-])c1 (centres unmarked) [NITRENDIPINE]
effect on spontaneous beating ([1]; doses higher than 1 μM, seven days): ceased spontaneous beating | time for benefits to wash out after removal from cell culture medium ([1]; mature DMD mutant hPSC-CMs, Mean ΔBI after washout): ≤ 48 h | beat rate variability level restored ([1]; mature DMD mutant hPSC-CMs, doses up to 1 μM, seven days): < 50 ms

N[C@@H](Cc1cc(I)c(Oc2ccc(O)c(I)c2)c(I)c1)C(=O)O [T3, Triiodothyronine]
impact of long-term exposure on sarcomere development and beat rate variability (hPSC-CMs; long-term T3 exposure (7, 14, 21 days), preliminary results): negative impact | cell area compared to Control (hPSC-CMs): significantly larger

CN1CCc2c(c3ccccc3n2Cc2ccccc2)C1.CN1CCc2c(c3ccccc3n2Cc2ccccc2)C1.O=S(=O)(O)c1cccc2c(S(=O)(=O)O)cccc12 [MEBHYDROLIN NAPHTHALENESULFONATE]
Average of % Viability (DMD mutant hPSC-CMs): 172.81 ± 39.86%

Let7i: Let-7i miRNA (UGAGGUAGUAGUUUGUGCU duplex) overexpressed from a lentiviral vector (listed as Homo sapiens)
cell area compared to Control (hPSC-CMs): significantly larger
